From US5831055A, “DNA encoding a novel kidney ATP-dependent potassium channels” (Pharmacia & Upjohn Company, priority 1996, dated 1998)

Key:
[1] = biological target: KIRK 1 (ROMK channel)
[2] = biological target: T1, KIRK 2 channel (Homo sapiens, UniProt P78508); assay: Two-microelectrode voltage-clamp of Xenopus oocytes injected with KIRK 2 cRNA; assay type: cell-based; conditions: for inhibition of KIRK 2 current: Xenopus oocytes expressing KIRK 2, Ba^2+ applied at 0.03 μM to 10 mM (n=8), Cs^+ n=6, data not shown
T1 construct: primers that flank the open-reading frame of KIRK-2 were used to PCR amplify this region of the genomic clone; expressed in transfected cells; host or cells: Xenopus laevis oocytes injected with polyadenylated KIRK 2 cRNA (from pSPORT/KIRK-2)
T1 sequence (P78508 1-379): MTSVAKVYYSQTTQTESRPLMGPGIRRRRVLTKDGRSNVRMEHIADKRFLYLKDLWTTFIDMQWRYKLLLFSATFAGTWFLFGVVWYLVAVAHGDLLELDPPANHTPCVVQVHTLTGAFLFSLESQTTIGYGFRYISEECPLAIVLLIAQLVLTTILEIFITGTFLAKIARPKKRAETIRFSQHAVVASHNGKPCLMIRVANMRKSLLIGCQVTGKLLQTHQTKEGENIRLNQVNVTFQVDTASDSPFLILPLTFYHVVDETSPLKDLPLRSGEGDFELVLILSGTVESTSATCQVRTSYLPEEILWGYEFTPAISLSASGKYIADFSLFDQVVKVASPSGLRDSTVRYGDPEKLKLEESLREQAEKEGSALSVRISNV
Protocol: Oocytes were collected under tricaine (3-aminobenzoic acid ethyl ester, 0.17%; Sigma, St. Louis, Mo.) and cold-induced anesthesia from adult African clawed frogs, Xenopus laevis (Nasco, Ft. Atkinson, Wis.), and defolliculated by blunt dissection in Ca^2+ free ND-96 following 40 minutes incubation in 2 mg/ml collagenase (Type II; Sigma, St. Louis, Mo.). ND-96 consisted of 96 mM NaCl, 2 mM KCl, 1 mM MgCl2, 0.3 mM CaCl2, 5 mM HEPES, pH 7.6.The following day, a glass injection pipette manually broken to ~15 μm tip diameter was used to inject oocytes with […] of polyadenylated cRNA dissolved in water at 15, 30 or 100 ng/μl resulting in injection of 0.6, 1.2, or 4 ng of cRNA. Prior to recordings, oocytes were maintained 2-7 days at 20° C. in ND-96 supplemented with gentamycin ([…]; Bio-Whittaker, Walkersville, Md.) and sodium-pyruvate (2.5 mM; Sigma).
Electrophysiological recordings were conducted at room temperature. Oocyte resting membrane potential was measured in ND-96 using 30-80 M.OMEGA. glass microelectrodes filled with 3M KCl For two-microelectrode voltage-clamp recordings, the voltage-measuring pipette had resistances of 1.5 to 2.0 M.OMEGA., while the current-injection pipette had resistances of 0.7-0.9 M.OMEGA.; both pipettes were filled with 3M KCl. All voltage-clamp recordings were conducted in bath solutions containing 1 mM MgCl2, 0.3 mM CaCl2, and 5 mM HEPES. For experiments conducted in 50 mM K^+, the solution contained 50 mM KCl and 50 mM NaCl. For lower potassium concentrations, this solution was mixed with an identical solution in which choline was substituted for potassium. Pairs of solutions at pH 5.4 and 8.4, containing 50 mM KCl and either 50 mM potassium-acetate or 50 mM potassium-hydrogen phthalate (biphthalate; Sigma, St. Louis, Mo.) were mixed to vary pH.
Two-microelectrode, voltage-clamp recordings were conducted using the GeneClamp 500 (Axon Instruments, La Jolla, Calif.) interfaced with a 486 Computer running the PCLAMP 6.0 (Axon Instruments, La Jolla, Calif.) suite of programs. Currents were filtered at 2 kHz and sampled every 100 μs. Current amplitude was measured during the last 4 ms of a 400 ms test pulse. Data were analyzed and plotted using PCLAMP 6.0 and SIGMA PLOT 5.0 (Jandel Scientific, San Rafael, Calif.). Statistical significance was determined by the Student's T-test.

| whole-cell current at a holding potential of -160 mV in Xenopus oocytes, two-microelectrode voltage clamp [1] [%] | Compound | fraction of the transmembrane electric field sensed by the binding site (Woodhull equation fit of Ki versus membrane potential) ([2]; Ki values at holding potentials -120, -80 and -40 mV) [%] | inhibition of KIRK 2 current [2] | Hill coefficient of logistic fit of concentration-dependence of KIRK 2 inhibition ([2]; three holding potentials (-120, -80, -40 mV), n=8) | effectiveness of block of KIRK 2 compared with Ba^2+ ([2]; apparent only at the most negative potentials tested, n=6, data not shown) |
| --- | --- | --- | --- | --- | --- |
| 54 | KIRK-3 (human kidney inward rectifier K channel 3) |  |  |  |  |
|  | [Ba+2] [Ba^2+] | 46 | reversible, concentrationdependent inhibition | 2 |  |
|  | [Cs+] [Cs^+] |  | reversible and voltage-dependent |  | far less effective than block by Ba^2+ |
